Values of other authors in patent US20040209811A1, “Oral prohylactic agent against viral infection” (Chuang-Chun Chiueh, priority 2003, published 2004).

How the values were obtained:
enterovirus = details: full prevention of infection; protected cells from viral invasion and pathological changes
cells = details: at >0.3 μM concentration

## phycocyanin
enterovirus
  concentration that could fully prevent enteroviral infection: > 0.3 µM
Influenza viruses
  concentration found to prevent the infection of influenza viruses: > 0.04 µM
cells
  toxicity to cells: non-toxic to cells
